Results taken from PubChem BioAssay AID2060513 (Molecular Pharmacology Branch, DTP, NCI, 2025).

System: 299254-011-R-J1-PDC complex spheroids viability
Experiment: Anticancer human tumor 299254-011-R-J1-PDC patient-derived melanoma cell line growth inhibition [GQUAD]
Conditions: for IC50: curve of first compound; for viability, T/C: stronger effect = lower value
Source text: DNA G-quadruplex Stabilizer Agents in Combinations in Complex Spheroids
A high-throughput screen of multi-cell type tumor spheroids was designed to identify active combinations of DNA G-quadruplex stabilizer agents and targeted small molecules. Complex spheroids include a stromal component modeled by human endothelial cells (HUVEC) and fibroblasts modeled by human mesenchymal stem cells (MSCs). The concentration ranges selected for each drug and investigational agent were based upon clinically achievable concentrations if the clinical Cmax of the agent was known.
Compounds. The drugs and investigational agents: pidnarulex (CX-5461; NSC782164), APTO-253 (NSC789042), BRACO-19 (NSC847499), peposertib (NSC802822), ceralasertib (NSC780249), elimusertib (NSC800525), camonsertib (NSC841442), AZD-1390 (NSC803789), olaparib (NSC753686), talazoparib (NSC767125), ART-558 (NSC835418), sotorasib (NSC818433), MRTX-1133 (NSC836407), SN-38 (NSC673596), topotecan (NSC609699), etoposide (NSC141540), doxorubicin (NSC123127), gemcitabine (NSC613327), 5-fluorouracil (NSC19893), paclitaxel (NSC125973), vemurafenib (NSC761431), panobinostat (NSC761190), R-306465 (JNJ-16241199; NSC773264), adavosertib (NSC754352), TP-3654 (NSC805149), carboplatin (NSC241240), KSQ-4279 (NSC840948), and staurosporine (NSC755774) were obtained from the National Cancer Institute (NCI) Developmental Therapeutics Program Chemical Repository (34). The FDA-approved anticancer drug set is available from the NCI Developmental Therapeutics Program. […] The stock solutions were prepared in dimethyl sulfoxide (DMSO, Sigma-Aldrich, St. Louis, MO, cat. D2650) at 800-fold the tested concentration and stored at -70 degrees C prior to their use. All drugs and investigational agents were tested over a range starting from a high concentration at or near the clinical Cmax and decreasing in half-log increments. If the clinical Cmax for an agent had not been determined, the highest concentration tested was 10 microM.
2.3 Cell Culture. All cells were maintained in an incubator at 37 degrees C and 5% CO2 with 95% humidity. The PDC lines were cultured according to standard operating procedures established by the NCI PDMR. All PDCs were thawed and cultured in Matrigel-coated flasks prepared with a working solution of 1X Ham's F-12 nutrient mix, without supplementation (Invitrogen, cat. 11765054), 100 U/mL penicillin-streptomycin (Invitrogen, cat. 15140122), and 2.5% Matrigel (Corning Inc., cat. 354248) for the first three passages. The 857933-349-R-J2-PDC line was cultured in 6C/Colon 1B media, which includes advanced DMEM/F-12 (Thermo Fisher Scientific, cat. 12634028), 10 mM HEPES (Thermo Fisher Scientific, cat. 15630080), 1X GlutaMAX supplement (Thermo Fisher Scientific, cat. 35050061), 0.1 mg/mL primocin (InvivoGen, cat. ant-pm-2), 10% defined fetal bovine serum, heat inactivated (HyClone Laboratories Inc., cat. SH30070.03HI), 50% L-WRN conditioned media (ATCC, cat. CRL-3276), 1.25 mM N-Acetyl-L-cysteine (Sigma-Aldrich, cat. A9165), 10 mM nicotinamide (Sigma-Aldrich, cat. N0636), 1X B-27 supplement (Thermo Fisher Scientific, cat. 17504044), 1X N-2 supplement (Thermo Fisher Scientific, cat. 17502048), 10 microM Y-27632 dihydrochloride (Tocris Bioscience, cat. 1254), and 50 ng/mL human EGF recombinant protein (Thermo Fisher Scientific, cat. PHG0311). The 485176-168-R4-J1-PDC line was cultured in Panc media, which includes all 6C/Colon 1B media components plus 100 ng/mL human FGF-10 (Thermo Fisher Scientific, cat. 100-26), 500 nM SB-431542 (Selleckchem, cat. S1067), and gastrin (Tocris, cat. 3006).
[…]

[1] = second compound 0.0316 µM, first compound 0.0316 µM
[2] = second compound 0.0316 µM, first compound 0.1 µM
[3] = second compound 0.0316 µM, first compound 0.316 µM
[4] = second compound 0.0316 µM, first compound 1 µM
[5] = second compound 0.0316 µM, first compound 3.16 µM
[6] = second compound 0.0316 µM, first compound 10 µM
[7] = second compound 0.1 µM, first compound 0.0316 µM
[8] = second compound 0.1 µM, first compound 0.1 µM
[9] = second compound 0.1 µM, first compound 0.316 µM
[10] = second compound 0.1 µM, first compound 1 µM
[11] = second compound 0.1 µM, first compound 3.16 µM
[12] = second compound 0.1 µM, first compound 10 µM
[13] = second compound 0.316 µM, first compound 0.0316 µM
[14] = second compound 0.316 µM, first compound 0.1 µM
[15] = second compound 0.316 µM, first compound 0.316 µM
[16] = second compound 0.316 µM, first compound 1 µM
[17] = second compound 0.316 µM, first compound 3.16 µM
[18] = second compound 0.316 µM, first compound 10 µM
[19] = second compound 1 µM, first compound 0.0316 µM
[20] = second compound 1 µM, first compound 0.1 µM
[21] = second compound 1 µM, first compound 0.316 µM
[22] = second compound 1 µM, first compound 1 µM
[23] = second compound 1 µM, first compound 3.16 µM
[24] = second compound 1 µM, first compound 10 µM
[25] = second compound 3.16 µM, first compound 0.0316 µM
[26] = second compound 3.16 µM, first compound 0.1 µM
[27] = second compound 3.16 µM, first compound 0.316 µM
[28] = second compound 3.16 µM, first compound 1 µM
[29] = second compound 3.16 µM, first compound 3.16 µM
[30] = second compound 3.16 µM, first compound 10 µM
[31] = second compound 10 µM, first compound 0.0316 µM
[32] = second compound 10 µM, first compound 0.1 µM
[33] = second compound 10 µM, first compound 0.316 µM
[34] = second compound 10 µM, first compound 1 µM
[35] = second compound 10 µM, first compound 3.16 µM
[36] = second compound 10 µM, first compound 10 µM
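Note: spheroids exposed to the agents for seven days before readout.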
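Throughout, for viability, T/C: percent viability relative to DMSO vehicle control wells = 100%.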

Which results are given for `COc1ccc([C@@H](O)c2cc(-c3ncnc4cc(N5CCOCC5)ccc34)c(F)cc2Cl)nn1` + CN(C)c1ccc(Nc2c3ccc(NC(=O)CCN4CCCC4)cc3nc3cc(NC(=O)CCN4CCCC4)ccc23)cc1?
IC50 (second compound 0.0316 µM): > 10 µM; IC50 (second compound 0.1 µM): > 10 µM; IC50 (second compound 0.316 µM): 9.57 µM; IC50 (second compound 1 µM): > 10 µM; IC50 (second compound 3.16 µM): > 10 µM; IC50 (second compound 10 µM): > 10 µM; viability, T/C [1]: 105%; viability, T/C [2]: 116%; viability, T/C [3]: 104%; viability, T/C [4]: 96.6%; viability, T/C [5]: 85.9%; viability, T/C [6]: 72.5%; viability, T/C [7]: 105%; viability, T/C [8]: 124%; viability, T/C [9]: 98.3%; viability, T/C [10]: 108%; viability, T/C [11]: 106%; viability, T/C [12]: 61.6%; viability, T/C [13]: 96.8%; viability, T/C [14]: 94.5%; viability, T/C [15]: 90%; viability, T/C [16]: 106%; viability, T/C [17]: 96.4%; viability, T/C [18]: 48.1%; viability, T/C [19]: 124%; viability, T/C [20]: 111%; viability, T/C [21]: 106%; viability, T/C [22]: 106%; viability, T/C [23]: 92.6%; viability, T/C [24]: 59.1%; viability, T/C [25]: 96.5%; viability, T/C [26]: 126%; viability, T/C [27]: 113%; viability, T/C [28]: 93.1%; viability, T/C [29]: 117%; viability, T/C [30]: 68.5%; viability, T/C [31]: 123%; viability, T/C [32]: 112%; viability, T/C [33]: 97.5%; viability, T/C [34]: 106%; viability, T/C [35]: 88.9%; viability, T/C [36]: 50.8%

Which results are given for `C=CC(=O)N1CCN(c2nc(=O)n(-c3c(C)ccnc3C(C)C)c3nc(-c4c(O)cccc4F)c(F)cc23)C(C)C1` (stereo not drawn) + CN(C)c1ccc(Nc2c3ccc(NC(=O)CCN4CCCC4)cc3nc3cc(NC(=O)CCN4CCCC4)ccc23)cc1?
IC50 (second compound 0.0316 µM): > 10 µM; IC50 (second compound 0.1 µM): > 10 µM; IC50 (second compound 0.316 µM): > 10 µM; IC50 (second compound 1 µM): > 10 µM; IC50 (second compound 3.16 µM): > 10 µM; IC50 (second compound 10 µM): > 10 µM; viability, T/C [1]: 93.8%; viability, T/C [2]: 68.9%; viability, T/C [3]: 73.1%; viability, T/C [4]: 56.3%; viability, T/C [5]: 64.4%; viability, T/C [6]: 66.6%; viability, T/C [7]: 79.4%; viability, T/C [8]: 80.2%; viability, T/C [9]: 57%; viability, T/C [10]: 60.4%; viability, T/C [11]: 74.7%; viability, T/C [12]: 74.3%; viability, T/C [13]: 76.2%; viability, T/C [14]: 81.3%; viability, T/C [15]: 62.3%; viability, T/C [16]: 68.2%; viability, T/C [17]: 67.3%; viability, T/C [18]: 65.4%; viability, T/C [19]: 81.1%; viability, T/C [20]: 74%; viability, T/C [21]: 71.8%; viability, T/C [22]: 67.4%; viability, T/C [23]: 80%; viability, T/C [24]: 65%; viability, T/C [25]: 71.2%; viability, T/C [26]: 83.3%; viability, T/C [27]: 75.8%; viability, T/C [28]: 60.4%; viability, T/C [29]: 73%; viability, T/C [30]: 79.1%; viability, T/C [31]: 74.4%; viability, T/C [32]: 74.8%; viability, T/C [33]: 74.7%; viability, T/C [34]: 68.2%; viability, T/C [35]: 69.7%; viability, T/C [36]: 76.8%

What does the source list for `Cc1cccc(N(C)C(=O)C2C(O)CCN2c2nc(C)cc(C(F)(F)F)c2C#N)c1` (stereo not drawn) + Cc1cnc(CNC(=O)c2c(=O)c3ccc(N4CCCN(C)CC4)nc3n3c2sc2ccccc23)cn1?
IC50 (second compound 0.0316 µM): > 10 µM; IC50 (second compound 0.1 µM): > 10 µM; IC50 (second compound 0.316 µM): > 10 µM; IC50 (second compound 1 µM): > 10 µM; IC50 (second compound 3.16 µM): > 10 µM; IC50 (second compound 10 µM): > 10 µM; viability, T/C [1]: 120%; viability, T/C [2]: 115%; viability, T/C [3]: 117%; viability, T/C [4]: 89.3%; viability, T/C [5]: 87.6%; viability, T/C [6]: 112%; viability, T/C [7]: 88.9%; viability, T/C [8]: 112%; viability, T/C [9]: 95.6%; viability, T/C [10]: 92.9%; viability, T/C [11]: 120%; viability, T/C [12]: 100%; viability, T/C [13]: 94.3%; viability, T/C [14]: 96.5%; viability, T/C [15]: 93.2%; viability, T/C [16]: 93.8%; viability, T/C [17]: 107%; viability, T/C [18]: 114%; viability, T/C [19]: 91.8%; viability, T/C [20]: 94%; viability, T/C [21]: 103%; viability, T/C [22]: 85.9%; viability, T/C [23]: 92.1%; viability, T/C [24]: 83.5%; viability, T/C [25]: 71.9%; viability, T/C [26]: 75.2%; viability, T/C [27]: 95.3%; viability, T/C [28]: 85.8%; viability, T/C [29]: 86.5%; viability, T/C [30]: 85.5%; viability, T/C [31]: 82%; viability, T/C [32]: 71.9%; viability, T/C [33]: 64.8%; viability, T/C [34]: 84.4%; viability, T/C [35]: 63.5%; viability, T/C [36]: 52%

Which results are given for `O=c1[nH]cc(F)c(=O)[nH]1` + Cc1[nH]c2ccc(F)cc2c1-c1nc2c3cccnc3c3ncccc3c2[nH]1?
IC50 (second compound 0.0316 µM): > 10 µM; IC50 (second compound 0.1 µM): > 10 µM; IC50 (second compound 0.316 µM): > 10 µM; IC50 (second compound 1 µM): > 10 µM; IC50 (second compound 3.16 µM): > 10 µM; IC50 (second compound 10 µM): > 10 µM; viability, T/C [1]: 131%; viability, T/C [2]: 114%; viability, T/C [3]: 113%; viability, T/C [4]: 121%; viability, T/C [5]: 116%; viability, T/C [6]: 125%; viability, T/C [7]: 120%; viability, T/C [8]: 105%; viability, T/C [9]: 110%; viability, T/C [10]: 123%; viability, T/C [11]: 98.3%; viability, T/C [12]: 123%; viability, T/C [13]: 104%; viability, T/C [14]: 99.6%; viability, T/C [15]: 119%; viability, T/C [16]: 100%; viability, T/C [17]: 97.5%; viability, T/C [18]: 97.8%; viability, T/C [19]: 88.3%; viability, T/C [20]: 98.6%; viability, T/C [21]: 106%; viability, T/C [22]: 108%; viability, T/C [23]: 116%; viability, T/C [24]: 106%; viability, T/C [25]: 99.3%; viability, T/C [26]: 107%; viability, T/C [27]: 96%; viability, T/C [28]: 113%; viability, T/C [29]: 90.4%; viability, T/C [30]: 107%; viability, T/C [31]: 96.4%; viability, T/C [32]: 96.5%; viability, T/C [33]: 92.1%; viability, T/C [34]: 102%; viability, T/C [35]: 98.9%; viability, T/C [36]: 88%
